Measurements: a compilation of properties of binary mixtures (doi:10.1007/s10953-014-0273-1)

Experiment: xn = mol fraction of the nth substance listed
Details: 101 kPa

CCCC[n+]1ccn(C)c1.F[B-](F)(F)F + CC#N
viscosity [mPa·s]
Details | x2 = 0 | x2 = 0.1001 | x2 = 0.2034 | x2 = 0.3011 | x2 = 0.4013 | x2 = 0.5 | x2 = 0.6018 | x2 = 0.7 | x2 = 0.7997 | x2 = 0.9001
303.15 K | – | 55.2 | – | 23.74 | 14.97 | 9.25 | 5.34 | 3 | 1.611 | 0.792
313.15 K | 53 | 36.5 | 24.4 | 16.9 | – | 7.14 | – | 2.522 | 1.389 | 0.707
323.15 K | – | 25.36 | 17.76 | – | 8.57 | – | 3.58 | 2.155 | – | 0.636
333.15 K | 25.01 | 18.43 | 13.23 | 9.83 | 6.83 | 4.69 | 3.03 | 1.877 | 1.103 | 0.579

CCCC[n+]1ccn(C)c1.F[B-](F)(F)F + CC(=O)N(C)C
viscosity [mPa·s]
Details | x2 = 0 | x2 = 0.1006 | x2 = 0.2004 | x2 = 0.3005 | x2 = 0.4011 | x2 = 0.5002 | x2 = 0.5998 | x2 = 0.6996 | x2 = 0.8002 | x2 = 0.8999
303.15 K | 84.2 | 59 | 41.6 | 29 | 19.38 | 12.88 | 8.32 | 4.99 | 2.95 | 1.679
313.15 K | 53 | 38.5 | 28 | 20.16 | 14 | – | 6.32 | 4 | 2.44 | –
323.15 K | 35.5 | 26.6 | 19.88 | 14.62 | 10.55 | 7.37 | – | – | 2.069 | –
333.15 K | 25.01 | 19.27 | 14.76 | 11.08 | 8.15 | 5.87 | 4.09 | 2.77 | – | 1.1

CC#N + CCCC[n+]1ccn(C)c1.F[B-](F)(F)F
x1 = 1
Details | viscosity [mPa·s]
303.15 K | 0.329
313.15 K | 0.3
323.15 K | 0.276

CC(=O)N(C)C + CCCC[n+]1ccn(C)c1.F[B-](F)(F)F
x1 = 1
Details | viscosity [mPa·s]
303.15 K | 0.882
323.15 K | 0.69
333.15 K | 0.618

CN1CCCC1=O + CCCC[n+]1ccn(C)c1.F[B-](F)(F)F
Details | viscosity [mPa·s]
303.15 K, x1 = 1 | 1.551

CO + CCCC[n+]1ccn(C)c1.F[B-](F)(F)F
x1 = 1
Details | viscosity [mPa·s]
313.15 K | 0.455
323.15 K | 0.401

CCCC[n+]1ccn(C)c1.F[B-](F)(F)F + CN1CCCC1=O
viscosity [mPa·s]
Details | x2 = 0 | x2 = 0.0999 | x2 = 0.2001 | x2 = 0.3028 | x2 = 0.4 | x2 = 0.4999 | x2 = 0.5998 | x2 = 0.7001 | x2 = 0.8003 | x2 = 0.9001
303.15 K | – | – | – | – | – | 17.17 | 11.43 | 7.37 | 4.64 | 2.9
313.15 K | 53 | 41 | 31.6 | 23.77 | 17.42 | 12.5 | 8.61 | 5.75 | 3.76 | 2.409
323.15 K | – | 28.2 | 22.15 | 17.13 | 13 | 9.47 | 6.73 | – | 3.13 | 1.991
333.15 K | 25.01 | 20.3 | 16.25 | 12.83 | 9.93 | 7.46 | 5.37 | 3.79 | 2.66 | 1.722

CCCC[n+]1ccn(C)c1.F[B-](F)(F)F + CO
viscosity [mPa·s]
Details | x2 = 0 | x2 = 0.1003 | x2 = 0.2047 | x2 = 0.2997 | x2 = 0.3996 | x2 = 0.504 | x2 = 0.6004 | x2 = 0.6992 | x2 = 0.7997 | x2 = 0.9001
303.15 K | 84.2 | 54.2 | 34.6 | 23.54 | 15.02 | 9.42 | – | 3.67 | 2.118 | 1.141
313.15 K | – | – | – | 16.93 | 11.32 | 7.4 | 4.86 | 3.03 | – | –
323.15 K | 35.5 | – | 17.81 | 12.9 | 8.94 | 6.02 | – | 2.537 | 1.527 | 0.895
333.15 K | 25.01 | 18.68 | 13.6 | 10.13 | – | 5.03 | 3.42 | 2.195 | 1.337 | 0.765
